# Laboratory results as given in patent publication US10471010B2, “Liposomal corticosteroids for treatment of inflammatory disorders in humans” (ENCELADUS PHARMACEUTICALS B.V., priority 2011, dated 2019).
# What was measured:
# [1] = potency of prednisolone set to 1; cited from earlier work
# [2] = tested on: rats with adjuvant-induced arthritis; assay: Rat adjuvant-induced arthritis, paw inflammation scores; assay type: in vivo, Lewis rats; conditions: for effect on the course of the disease: single injection, equal dose (10 mg/kg), 10 mg/kg
# Method: Lewis rats were immunized subcutaneously at the tail base with heat-inactivated Mycobacterium tuberculosis in incomplete Freund's adjuvant. […] Assessment of the disease was performed by visually scoring paw inflammation severity, maximum score 4 per paw, and measuring disease-induced body weight loss. The therapeutic efficacy of liposomal prednisolone phosphate on these variables was compared with equal doses unencapsulated drug. Rats were treated when the average score >6 (at day 14 or 15 after disease induction).
structure (smiles),measurement,setting,value
C[C@]12C=CC(=O)C=C1CC[C@H]1[C@@H]3C[C@@H](O)[C@](O)(C(=O)CO)[C@@]3(C)C[C@H](O)[C@@]12F [triamcinolone],potency ratio as compared to prednisolone,[1],1.25
CC(=O)OCC(=O)[C@@]1(O)CC[C@H]2[C@@H]3CCC4=CC(=O)CC[C@]4(C)[C@@]3(F)[C@@H](O)C[C@@]21C [fludrocortisone acetate],potency ratio as compared to prednisolone,[1],3.5
"C[C@]12C=CC(=O)C=C1CC[C@@H]1[C@@H]2[C@@H](O)C[C@@]2(C)[C@H]1CC[C@]2(O)C(=O)COP(=O)(O)O [Unencapsulated prednisolone phosphate, prednisolone phosphate]",average inflammation scores,"[2]; 20 mg/kg daily for 7 days, day 15 until day 21, from average 6.5 on day 14",around 5.0
same,effect of repeated daily treatment,[2]; repeated daily treatment,short-lasting moderate effect
same,effect on the course of the disease,[2],did not significantly alter the course of the disease
same,effect on the course of the disease,[2]; listed as free prednisolone,not effective
